# Like-named read-outs stand apart in the source and are kept apart here.
# Columns and labels:
# tumor cells 22RV1 = experiment: Anti-tumor activity assay (chemiluminescence CTG cell viability), 22RV1; assay type: cell-based; settings: 22RV1 cells; for Hillslope 22RV1: fitted dose-effect curve; for IC50: Homo sapiens, 72 h, CTG chemiluminescence
# Protocol: (§1) The frozen tumor cells (prostate cancer, ovarian cancer, etc.) were taken out from liquid nitrogen, and quickly dissolved at 37° C. The cells were added to 5 ml of the corresponding medium containing FBS and centrifuged at 300 g for 5 minutes. The precipitate was collected, resuspended with the corresponding medium and then mixed well. After that, cells were added to a 24-well cell culture dish, supplemented with the medium to a total volume of 2 mL per well at 37° C. and cultured. After the confluence reached about 90%, subculturing or counting and plating was performed.
# (§2) After the cultured tumor cells were sufficient to be passaged, they were digested with trypsin and a single cell suspension was prepared. After counting, cells were adjusted to a concentration of 1.2×10^4 cells/ml with the corresponding medium. 90 μl of the mixed solution was added to a 96-well plate and incubated at 37° C. for 30 minutes. Then the mixture was added with the corresponding medium and incubated in a cell incubator at 37° C. overnight. The morphology and confluence of tumor cells were observed.
# (§3) After the tumor cells were cultured overnight, serial dilutions of the compounds were prepared and added to the culture system.
# (§4) The stock solution of the indazole hydrazide compound (100 mM) dissolved in DMSO was fully dissolved at room temperature. If there was any insoluble matter, heating and ultrasonication were carried out for 5 minutes to observe until dissolution.
# (§5) 20 μl DMSO was added to wells 2-9 of a 96-well V-shaped compound dilution plate, and 30 μl stock solution was added to well 1. The compound dilution plate was placed on a shaking mixer. 10 μl liquid was transferred from well 1 to well 2, mixed well by pipetting and shaking, then 10 μl of liquid was transferred from well 2 to well 3, mixed well by pipetting and shaking, and so on . . . and finally 10 μl of liquid was transferred from well 8 to well 9, mixed well by pipetting and shaking, and 1000× gradient dilution stock solution was prepared. [Note: As DMSO easily absorbs moisture in the air, after the operation, the compound dilution plate was immediately sealed with parafilm, stored at 4° C., and discarded after 1 week. When using it again, the parafilm was removed after the temperature reached room temperature to avoid inaccurate concentration caused by moisture absorption.]
# (§6) In the ultra-clean workbench, a 96-well sterile cell culture plate was used. 198 μl of medium was added to wells 1-9, and 2 μl of the stock solution in wells 1-9 of the 1000× stock solution was transferred to the corresponding wells 1-9 of the 96-well sterile cell culture plate, mixed well by pipetting and shaking, and […] was prepared. This stock solution needed to be prepared and used on the same day.
# (§7) 10 μl of the 10× stock solution prepared on the day was added to the cell culture medium.
# (§8) It was incubated for 72 h at 37° C. under 5% carbon dioxide conditions.
# (§9) Chemiluminescence method was used to measure ATP level of cells to evaluate cell viability. The specific operation was performed in accordance with the instructions. After the incubation, 50 μL of CTG solution was added. After mixing well, the lysis mixture was transferred to a microplate reader. After 5-10 minutes, the chemiluminescence data were gathered in the microplate reader. Excel software was used to analyze and process the data, and GraphPad Prism 7 software was used to calculate IC50 according to the fitted dose-effect curve generated by the chemiluminescence data.
# (§10) In this test, Z factor was used as a quality control indicator. Z′ factor was defined by 4 parameters: the mean (μ) and standard deviation (σ) of the positive control (positive, p) and the negative control (negative, n).
# (§11) The negative control group was the untreated group with the addition of solvent (DMSO); the positive control was 2.5 μM BEZ235 or 1 μM Staurosporine. […]
# tumor cells LNCaP = experiment: Anti-tumor activity assay (chemiluminescence CTG cell viability), LNCaP; assay type: cell-based; settings: for IC50: Homo sapiens, 72 h, CTG chemiluminescence
# Protocol: as §1, §2, §3, §4, §5, §6, §7, §8, §9, §10, §11
# HUVEC cells = experiment: 2D angiogenesis experiment (HUVEC on Matrigel); assay type: cell-based, human; settings: VEGF, 4 h
# Protocol: 3.1 Evaluation of Anti-Angiogenesis of Compounds by 2D Angiogenesis Experiment:
# (1) In a 96-well plate, 50 ul of 100% Matrigel was added to each well and air bubbles should be avoided. The plate was then placed in a 37° C. incubator for 45 minutes.
# (2) When the confluence of HUVEC cells in good growth state reached about 80%, the cells were digested, and resuspended in HUVEC complete medium. 40 uL of resuspension was added to each well in triplicate at a concentration of 4×10000 cells/well.
# (3) 5 uL of compounds with three concentrations of high, medium and low was added to the test compound group. In the VEGF group, 5 uL of culture medium containing 200 ng/ml VEGF was added. In the solvent group, 10 uL culture medium was supplemented.
# (4) Cells were incubated in a 37° C. 5% CO2 incubator for 4 h, and photos of each well were taken.
# integrin protein αvβ3 = integrin protein αvβ3 (Homo sapiens, UniProt P05106+P06756); experiment: Affinity test by surface plasmon resonance (Biacore 8K); assay type: binding
# Protocol: The surface plasmon resonance instrument Biacore 8K was used to analyze the interaction between the compound and the integrin protein αvβ3. First, the system temperature was set to 25° C., and the flow rate to […]. PBS buffer was passed until the baseline was stable.
# Without activating the surface of the chip, the integrin αvβ3 protein sample was dissolved in sodium acetate buffer with different pH values (pH=4, 4.5, 5) to make it carry different amounts of charge. Then the integrin protein sample flowed through the surface of the chip at a flow rate of 10 μL/min. Through the binding curve of integrin and the chip, a appropriate pH condition (pH=4.0) was determined. Finally, 50 mM NaOH eluate was injected to wash away the protein adsorbed on the chip surface.
# CM5 chip was selected. The protein coupling was operated according to the amino coupling method, and the coupling steps are as follows: • (1) Activation: NHS/EDC mixture (0.1 M NHS and 0.4 M EDC, mixed at a volume ratio of 1:1 before use, and used immediately) was injected for 800 s at a flow rate of 10 μL/min, to activate the carboxyl of glucan on the surface of the chip; • (2) Immobilization: 20 ng/μL integrin αvβ3 protein solution was prepared with the buffer with the pH value determined in the pretreatment, and was injected for 800 s at a flow rate of 10 μL/min; • (3) Blocking: 1 M ethanolamine hydrochloride was used to block for 800 s to complete the immobilization process of the protein. 4.1.4 Binding Experiment
# The compound to be tested was dissolved in PBS-P buffer (1.0×PBS, pH7.4, 0.15M Nacl, 0.05% tween-20), to prepare to a concentration of 50 μM. It was injected at a flow rate of 10 μL/min for a preliminary binding analysis.
# The compound that was positive in the preliminary analysis was then prepared with buffers to a concentration gradient of 50 μM, 25 μM, 12.5 μM, 6.3 μM, 3.1 μM, 1.6 μM, 0.78 μM, 0.39 μM, 0.097 μM, 0.024 μM, and 0.0061 μM, and SB273005 was used as a positive control for a kinetic constant analysis.
# [1] = tested on: prostate cancer PC-3 cells; experiment: Anti-tumor activity assay (chemiluminescence), PC-3; assay type: cell-based; settings: FIG. 21-22
# Protocol: as §1
# as §2, with “observed. […]” for “observed.”
# (§12) Chemiluminescence method was used to measure ATP level of cells to evaluate cell viability. […] After mixing well, the lysis mixture was transferred to a microplate reader. After 5-10 minutes, the chemiluminescence data were gathered in the microplate reader. […]
# [2] = tested on: prostate cancer DU145 cells; experiment: Anti-tumor activity assay (chemiluminescence), DU145; assay type: cell-based; settings: FIG. 21-22
# Protocol: as §1
# as §2, with “observed. […]” for “observed.”
# as §12
# melanoma cell WM115 = experiment: Anti-tumor activity assay (chemiluminescence), WM115; assay type: cell-based; settings: WM115 cells, FIG. 21-22
# Protocol: as §1
# as §2, with “observed. […]” for “observed.”
# as §12
# [3] = tested on: ovarian cancer cell OVCAR-4; experiment: Anti-tumor activity assay (chemiluminescence), OVCAR-4; assay type: cell-based; settings: OVCAR-4 cells, FIG. 21-22
# Protocol: as §1
# as §2, with “observed. […]” for “observed.”
# as §12
# [4] = tested on: vascular endothelial cell HUVEC-T11; experiment: Activity assay (chemiluminescence), HUVEC-T11; assay type: cell-based; settings: HUVEC-T11 cells, FIG. 21-22
# [5] = tested on: microvascular endothelial cell HMEC-1; experiment: Activity assay (chemiluminescence), HMEC-1; assay type: cell-based; settings: HMEC-1 cells, FIG. 21-22
# [6] = tested on: drug-resistant 22RV1 cells; experiment: Combination with enzalutamide on 22RV1 cells (chemiluminescence); assay type: cell-based; settings: in combination with enzalutamide, enzalutamide-resistant 22RV1 cells, FIG. 23
# Protocol: as §9
# [7] = tested on: tumor cells and HUVEC cells spheroids; experiment: 3D co-culture of tumor cells and HUVEC cells anti-angiogenesis experiment; assay type: cell-based, human; settings: 0.3 μM, 1.0 μM, day 2 and day 5, VEGF 20 ng/mL
# Protocol: 3.2 Experiments of Evaluating Anti-Angiogenesis of Compounds by 3D Co-Culture of Tumor Cells and HUVEC Cells: • (1) 25,000 tumor cells and 25,000 HUVEC cells were mixed and plated in a low-adsorption 24-well plate. Cells were shaken horizontally in a 37° C. incubator and placed for 24 h to form a suspension of Spheroids. • (2) 40 uL of 10% Matrigel was added to each well, and placed at 37° C. for 45 min to crosslink and harden the gel. 40 uL of suspension with Spheroids was added to wells. • (3) After 24 h, 10 uL of compounds with three concentrations of high, medium and low was added to the test compound group. In the VEGF group, 10 uL of culture medium containing 200 ng/ml VEGF was added. In the solvent group, 20 uL culture medium was supplemented. • (4) Cells were incubated in a 37° C. 5% CO2 incubator for 0, 2, 5, and 7 days, and photos of each well were taken.
# Bright-field photos were taken under the microscope, scale bar=100 μm. The imageview software measurement tool was used to count the length of the blood vessels generated by one organoid. The average of the total length of blood vessels was calculated. It was compared with the 20 ng/ml VEGF group. *p<0.05, **p<0.01. Error bars indicate ±SEM.
# In the 3D […] experiment, the following conclusions can be drawn based on the bright field photos and the total length of blood vessels on 0, 2, 5, and 7 days after addition of drugs: […]
# [8] = SPR, immobilized integrin αvβ3, 25° C., read-out: KD affinity
# Chain of integrin protein αvβ3 (P06756 31-1048): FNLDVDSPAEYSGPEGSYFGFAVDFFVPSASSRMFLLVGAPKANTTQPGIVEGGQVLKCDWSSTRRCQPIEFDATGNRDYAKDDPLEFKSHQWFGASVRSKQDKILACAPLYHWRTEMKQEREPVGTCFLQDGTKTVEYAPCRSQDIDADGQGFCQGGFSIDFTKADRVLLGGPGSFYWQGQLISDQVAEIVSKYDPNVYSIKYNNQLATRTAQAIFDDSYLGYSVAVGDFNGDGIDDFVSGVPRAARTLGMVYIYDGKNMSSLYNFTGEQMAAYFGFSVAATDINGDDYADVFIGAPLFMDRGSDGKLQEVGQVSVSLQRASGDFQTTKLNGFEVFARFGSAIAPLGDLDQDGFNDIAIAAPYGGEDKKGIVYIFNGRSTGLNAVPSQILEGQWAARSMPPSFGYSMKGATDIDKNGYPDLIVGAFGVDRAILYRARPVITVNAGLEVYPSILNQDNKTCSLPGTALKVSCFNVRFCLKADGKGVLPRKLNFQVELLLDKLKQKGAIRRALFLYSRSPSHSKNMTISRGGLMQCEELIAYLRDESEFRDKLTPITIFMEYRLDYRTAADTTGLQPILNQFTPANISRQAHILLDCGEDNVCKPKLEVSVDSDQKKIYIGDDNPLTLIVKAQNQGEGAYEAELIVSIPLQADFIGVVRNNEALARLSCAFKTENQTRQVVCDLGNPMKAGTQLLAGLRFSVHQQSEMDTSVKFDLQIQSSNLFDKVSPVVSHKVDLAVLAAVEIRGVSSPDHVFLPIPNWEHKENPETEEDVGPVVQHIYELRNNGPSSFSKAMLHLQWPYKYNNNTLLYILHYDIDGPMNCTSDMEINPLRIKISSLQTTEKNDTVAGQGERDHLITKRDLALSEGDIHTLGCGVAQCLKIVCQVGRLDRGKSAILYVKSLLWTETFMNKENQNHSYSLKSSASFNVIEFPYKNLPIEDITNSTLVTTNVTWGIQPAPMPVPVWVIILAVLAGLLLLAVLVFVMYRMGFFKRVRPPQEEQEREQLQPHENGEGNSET
# Chain of integrin protein αvβ3 (P05106 27-788): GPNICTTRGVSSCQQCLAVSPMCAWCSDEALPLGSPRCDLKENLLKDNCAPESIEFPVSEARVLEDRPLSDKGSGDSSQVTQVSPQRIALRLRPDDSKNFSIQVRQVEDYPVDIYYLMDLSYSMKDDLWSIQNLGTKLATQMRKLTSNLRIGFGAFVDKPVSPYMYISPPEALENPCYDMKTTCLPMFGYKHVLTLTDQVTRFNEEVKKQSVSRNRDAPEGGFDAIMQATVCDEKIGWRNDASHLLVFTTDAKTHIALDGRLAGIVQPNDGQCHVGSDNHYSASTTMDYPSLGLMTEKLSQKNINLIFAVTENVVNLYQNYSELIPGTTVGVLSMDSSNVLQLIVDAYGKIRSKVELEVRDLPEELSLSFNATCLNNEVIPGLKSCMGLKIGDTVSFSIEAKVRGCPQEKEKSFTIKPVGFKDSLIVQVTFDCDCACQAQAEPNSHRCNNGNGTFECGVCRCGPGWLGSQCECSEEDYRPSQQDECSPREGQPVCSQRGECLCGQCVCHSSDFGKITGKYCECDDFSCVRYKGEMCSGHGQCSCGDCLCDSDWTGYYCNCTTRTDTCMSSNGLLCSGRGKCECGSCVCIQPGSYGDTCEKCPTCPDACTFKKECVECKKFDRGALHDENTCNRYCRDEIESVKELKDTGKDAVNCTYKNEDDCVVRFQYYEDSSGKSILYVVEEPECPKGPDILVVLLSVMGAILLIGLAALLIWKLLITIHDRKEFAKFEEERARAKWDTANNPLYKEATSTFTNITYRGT
smiles,measurement,setting,value
O=C(N/N=C/c1ccc([N+](=O)[O-])cc1)c1n[nH]c2c1CCCC2 [19-8],Hillslope 22RV1,tumor cells 22RV1,−1.177
same,IC50,tumor cells 22RV1,3.49 µM
same,IC50,tumor cells LNCaP,3.76 µM
same,inhibition of microtubule formation,HUVEC cells,did not show any obvious inhibition
COc1ccc(/C=N/NC(=O)c2n[nH]c3c2CCCC3)cc1OC [19-7],Hillslope 22RV1,tumor cells 22RV1,−13.53
same,IC50,tumor cells 22RV1,4.08 µM
same,IC50,tumor cells LNCaP,4.27 µM
same,inhibition of microtubule formation,HUVEC cells,did not show any obvious inhibition
same,Kd,integrin protein αvβ3; [8],10.1 µM
O=C(N/N=C/c1cccc(O)c1)c1n[nH]c2c1CCCC2 [Formula (5)],anti-tumor activity (activity curve),tumor cells 22RV1; FIG. 21-22,obvious anti-tumor activity
same,anti-tumor activity (activity curve),tumor cells LNCaP; FIG. 21-22,obvious anti-tumor activity
same,anti-tumor activity (activity curve),[1],obvious anti-tumor activity
same,anti-tumor activity (activity curve),[2],obvious anti-tumor activity
same,tumor-inhibiting effect (activity curve),melanoma cell WM115,highest tumor-inhibiting effect
same,inhibitory effect (activity curve),[3],inhibitory effect
same,inhibitory effect (activity curve),[4],inhibitory effect
same,inhibitory effect (activity curve),[5],inhibitory effect
same,effect of combination with enzalutamide,[6],synergistic effect
same,Kd,"integrin protein αvβ3; stated in summary text, read-out: KD value interacting with the protein αvβ3",0.158 µM
CC(C)C/C=C(/C=N/NC(=O)c1n[nH]c2c1CCCC2)c1ccccc1 [19-2],Hillslope 22RV1,tumor cells 22RV1,−0.7631
same,IC50,tumor cells 22RV1,364 µM
same,IC50,tumor cells LNCaP,19.6 µM
C/C(CCc1ccc(O)cc1)=N\NC(=O)c1n[nH]c2c1CCCC2 [19-1],IC50,tumor cells LNCaP,28.8 µM
O=C(N/N=C/c1c(O)cc(O)cc1O)c1n[nH]c2c1CCCC2 [19-5],Hillslope 22RV1,tumor cells 22RV1,−2.689
same,IC50,tumor cells 22RV1,49.6 µM
same,IC50,tumor cells LNCaP,36.7 µM
same,Kd,integrin protein αvβ3; [8],2.15 µM
COc1ccc(/C=N/NC(=O)c2n[nH]c3c2CCCC3)cc1O [19-9],Hillslope 22RV1,tumor cells 22RV1,−2.911
same,IC50,tumor cells 22RV1,0.47 µM
same,IC50,tumor cells LNCaP,1.09 µM
same,inhibition of microtubule formation,HUVEC cells,significant inhibition
same,inhibition of angiogenesis (total length of blood vessels) compared with the VEGF group,"[7]; 3.0 μM, FIG. 33-34",significantly inhibit angiogenesis
same,Kd,integrin protein αvβ3; [8],0.78 µM
Cc1ccc(/C=N/NC(=O)c2n[nH]c3c2CCCC3)cc1O [19-6],Hillslope 22RV1,tumor cells 22RV1,−3.273
same,IC50,tumor cells 22RV1,0.86 µM
same,IC50,tumor cells LNCaP,1.41 µM
same,inhibition of microtubule formation,HUVEC cells,significant inhibition
same,inhibition of angiogenesis (total length of blood vessels) compared with the VEGF group,"[7]; 3.0 μM, FIG. 33-34",significantly inhibit angiogenesis
Cc1ccc(/C=N/NC(=O)c2n[nH]c3c2CCCC3)cc1 [19-4],Hillslope 22RV1,tumor cells 22RV1,−4.343
same,IC50,tumor cells 22RV1,0.25 µM
same,IC50,tumor cells LNCaP,0.36 µM
same,inhibition of microtubule formation,HUVEC cells,significant inhibition
same,inhibition of angiogenesis (total length of blood vessels) compared with the VEGF group,"[7]; 0.1 μM, FIG. 32",significantly inhibit angiogenesis
O=C(N/N=C/CCc1cccc(C(F)(F)F)c1)c1n[nH]c2c1CCCC2 [19-3],IC50,tumor cells LNCaP,19.6 µM

# From patent publication US12479805B2, “Indazole hydrazide compound and application thereof” (Beijing Baheal Chengchuang Pharmaceutical Research and …, priority 2021, dated 2025)
